Here are results for three compounds from US20150245612A1, “ACTIVE INGREDIENT FOR CONTROLLING SPIDER MITES” (BAYER CROPSCIENCE AG, priority 2014, published 2015).

Holding throughout (type): in vivo
The subject of experiment [1] is Brevipalpus phoenicis. The experiment can be described thus: Brevipalpus phoenicis test; outdoor spray treatment (BRVPPH), orange trees. The conditions noted are these: BRVPPH on C. sinensis. The text has this:
Brevipalpus phoenicis Test; Outdoor Spray Treatment (BRVPPH)
(§1) To produce an appropriate active ingredient formulation, 1 part by weight of active ingredient is mixed with the stated amounts of water to the desired concentration. Added to the spray liquor is 0.1% a.i. Crovol.
Three eight-year-old orange trees (Citrus sinensis) affected by all stages of the false spider mite (Brevipalpus phoenicis) are sprayed with an active ingredient formulation of each desired concentration. Application is effected with a motorized backpack sprayer. In accordance with common practice, the water application rate is 1000 l/Ha. One spray application is conducted in each case.
(§2) After the desired time, the remaining mites per leaf are counted and calculated as the efficacy by the Abbott formula:
(§3) B=treated plots K=untreated control plots

For experiment [2], the system named is Eutetranychus anneckei. In words: Eutetranychus anneckei test; outdoor spray treatment (EUTEOR), orange trees. The conditions noted are these: EUTEOR on C. sinensis.
From the text: Eutetranychus anneckei Test; Outdoor Spray Treatment (EUTEOR)
as §1
Three two-year-old orange trees (Citrus sinensis) affected by all stages of the oriental spider mite (Eutetranychus anneckei) are sprayed with an active ingredient formulation of each desired concentration. Application is effected with a motorized backpack sprayer. In accordance with common practice, the water application rate is 1000 l/Ha. One spray application is conducted in each case.
as §2, §3

Experiment [3] relates to Phyllocoptruta oleivora. In words: Phyllocoptruta oleivora test; outdoor spray treatment (PHYUOL), orange trees. The following applies: PHYUOL on C. sinensis.
From the text: Phyllocoptruta oleivora Test; Outdoor Spray Treatment (PHYUOL)
as §1
Three 15-year-old orange trees (Citrus sinensis) affected by all stages of the citrus rust mite (Phyllocoptruta oleivora) are sprayed with an active ingredient formulation of each desired concentration. Application is effected with a motorized backpack sprayer. In accordance with common practice, the water application rate is 1000 l/Ha. One spray application is conducted in each case.
as §2, §3

Experiment [4] relates to Panonychus citri. The experiment can be described thus: Panonychus citri test; outdoor spray treatment (METTCI), orange trees. The conditions noted are these: METTCI on C. sinensis.
From the text: Panonychus citri test; outdoor spray treatment (METTCI)
To produce an appropriate active ingredient formulation, 1 part by weight of active ingredient is mixed with the stated amounts of water to the desired concentration. Added to the spray liquor is 0.1% a.i. rapeseed oil methyl ester.
Three two-year-old orange trees (Citrus sinensis) affected by all stages of the citrus red mite (Panonychus citri) are sprayed with an active ingredient formulation of each desired concentration. Application is effected with a motorized backpack sprayer. In accordance with common practice, the water application rate is 1000 l/Ha. One spray application is conducted in each case.
as §2, §3

In experiment [5] the test system is Panonychus citri. The experiment can be described thus: Panonychus citri test; outdoor spray treatment (METTCI), satsuma trees. The following applies: METTCI on C. unshiu.
From the text: (§4) Panonychus citri Test; Outdoor Spray Treatment (METTCI)
as §1
Three 5-year-old satsuma trees (Citrus unshiu) affected by all stages of the citrus red mite (Panonychus citri) are sprayed with an active ingredient formulation of each desired concentration. Application is effected with a motorized backpack sprayer. In accordance with common practice, the water application rate is 1850 l/Ha. One spray application is conducted in each case.
as §2, §3

Experiment [6] concerns Panonychus citri. In words: Panonychus citri test; outdoor spray treatment (METTCI), lemon trees. The conditions noted are these: METTCI on C. limon.
From the text: as §4, §1
Three two-year-old lemon trees (Citrus limon) affected by all stages of the citrus red mite (Panonychus citri) are sprayed with an active ingredient formulation of each desired concentration. Application is effected with a motorized backpack sprayer. In accordance with common practice, the water application rate is 1000 l/Ha. One spray application is conducted in each case.
as §2, §3

Where [7] appears, read: 100 g ai/ha/mch, + Crovol 0.1%, 7 Dat.
Setting [8] is: 100 g ai/ha/mch, + Crovol 0.1%, 14 Dat.

For `Cc1nn(C)c(/C(OC(=O)C(C)(C)C)=C(\C#N)c2ccc(C(C)(C)C)cc2)c1C` [Cyenopyrafen, reference compound], the “Efficacy (% Abbott)” value in experiment [1] (150 g ai/ha/mch, 3 Dat) was 74.4 % Abbott; in experiment [1] (150 g ai/ha/mch, 7 Dat), 92.5 % Abbott; in experiment [1] (150 g ai/ha/mch, 14 Dat), 94.7 % Abbott; in experiment [1] (150 g ai/ha/mch, 21 Dat), 100 % Abbott; in experiment [1] (150 g ai/ha/mch, 49 Dat), 78 % Abbott; in experiment [1] (150 g ai/ha/mch, 60 Dat), 97.6 % Abbott. Further, the “Efficacy (% Abbott)” value in experiment [2] (150 g ai/ha/mch, 8 Dat) amounted to 100 % Abbott; in experiment [2] (150 g ai/ha/mch, 16 Dat) it was 96 % Abbott; in experiment [2] (150 g ai/ha/mch, 22 Dat) it was 100 % Abbott; in experiment [2] (150 g ai/ha/mch, 30 Dat), 83 % Abbott; in experiment [2] (150 g ai/ha/mch, 36 Dat), 63 % Abbott; in experiment [3] (150 g ai/ha/mch, 5 Dat) it was 32 % Abbott. Also, the “Efficacy (% Abbott)” value in experiment [3] (150 g ai/ha/mch, 13 Dat) worked out at 29 % Abbott; in experiment [3] (150 g ai/ha/mch, 19 Dat), 31 % Abbott; in experiment [3] (150 g ai/ha/mch, 27 Dat), 32 % Abbott.

Take `CCC(C)(C)C(=O)OC1=C(c2ccc(Cl)cc2Cl)C(=O)OC12CCCCC2` [Spirodiclofen, reference compound]: the “Efficacy (% Abbott)” value in experiment [4] (48 g ai/ha/mch, 1 Dat) was 29 % Abbott; in experiment [4] (48 g ai/ha/mch, 5 Dat), 90 % Abbott; in experiment [5] (144 g ai/ha/mch, 4 Dat), 70.7 % Abbott; in experiment [5] (144 g ai/ha/mch, 7 Dat), 85.2 % Abbott; in experiment [5] (144 g ai/ha/mch, 14 Dat), 78 % Abbott; in experiment [6] (48 g ai/ha/mch, 6 Dat), 58 % Abbott. The “Efficacy (% Abbott)” value in experiment [6] (48 g ai/ha/mch, 23 Dat) is listed as 100 % Abbott.

Regarding `Cn1nc(C(F)(F)C(F)(F)F)c(C(F)(F)F)c1C(=O)Nc1ccc(Cl)c(C(=O)NCc2ccccc2)c1` [Compound (I)], the “Efficacy (% Abbott)” value in experiment [1] (100 g ai/ha/mch, + Crovol 0.1%, 3 Dat) stood at 88.4 % Abbott; in experiment [1] (setting [7]), 95 % Abbott; in experiment [1] (setting [8]), 100 % Abbott; in experiment [1] (100 g ai/ha/mch, + Crovol 0.1%, 21 Dat), 100 % Abbott; in experiment [1] (100 g ai/ha/mch, + Crovol 0.1%, 49 Dat), 92.7 % Abbott; in experiment [1] (100 g ai/ha/mch, + Crovol 0.1%, 60 Dat), 100 % Abbott. For the same compound, the “Efficacy (% Abbott)” value in experiment [2] (100 g ai/ha/mch, + Crovol 0.1%, 8 Dat) is 99 % Abbott; in experiment [2] (100 g ai/ha/mch, + Crovol 0.1%, 16 Dat), 99 % Abbott; in experiment [2] (100 g ai/ha/mch, + Crovol 0.1%, 22 Dat), 100 % Abbott; in experiment [2] (100 g ai/ha/mch, + Crovol 0.1%, 30 Dat), 98 % Abbott; in experiment [2] (100 g ai/ha/mch, + Crovol 0.1%, 36 Dat), 93 % Abbott; in experiment [4] (50 g ai/ha/mch, + RME 0.1%, 1 Dat) it was 85 % Abbott. The “Efficacy (% Abbott)” value was determined as 99 % Abbott in experiment [4] (50 g ai/ha/mch, + RME 0.1%, 5 Dat); 99 % Abbott in experiment [4] (100 g ai/ha/mch, + RME 0.1%, 1 Dat); 100 % Abbott in experiment [4] (100 g ai/ha/mch, + RME 0.1%, 5 Dat); 100 % Abbott in experiment [5] (100 g ai/ha/mch, + Crovol 0.1%, 4 Dat); 98.1 % Abbott in experiment [5] (setting [7]); 97.6 % Abbott in experiment [5] (setting [8]). The “Efficacy (% Abbott)” value was found to be 90 % Abbott in experiment [6] (100 g ai/ha/mch, + Crovol 0.1%, 6 Dat); 99 % Abbott in experiment [6] (100 g ai/ha/mch, + Crovol 0.1%, 23 Dat); 36 % Abbott in experiment [3] (75 g ai/ha/mch, + Crovol 0.1%, 5 Dat); 45 % Abbott in experiment [3] (75 g ai/ha/mch, + Crovol 0.1%, 13 Dat); 64 % Abbott in experiment [3] (75 g ai/ha/mch, + Crovol 0.1%, 19 Dat); 72 % Abbott in experiment [3] (75 g ai/ha/mch, + Crovol 0.1%, 27 Dat). The “Efficacy (% Abbott)” value came out at 77 % Abbott in experiment [3] (100 g ai/ha/mch, + Crovol 0.1%, 5 Dat); 84 % Abbott in experiment [3] (100 g ai/ha/mch, + Crovol 0.1%, 13 Dat); 94 % Abbott in experiment [3] (100 g ai/ha/mch, + Crovol 0.1%, 19 Dat); 96 % Abbott in experiment [3] (100 g ai/ha/mch, + Crovol 0.1%, 27 Dat).
